Measurements reported in patent US20240381872A1, “SUBSTITUTED 2,3-DIHYDRO[1,3]THIAZOLO[4,5-B]PYRIDINES, SALTS THEREOF AND THEIR USE AS HERBICIDALLY ACTIVE SUBSTANCES” (BAYER AKTIENGESELLSCHAFT, priority 2021, published 2024).

Columns and labels:
Format in all cases: in vivo
Stellaria media (STEME) [1] = assay: Herbicidal post-emergence action, section B (Table B9); details: application rate 320 g/ha, visual rating about 3 weeks after treatment vs untreated controls
Outline: (§1)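 Under optimum greenhouse conditions, sandy-loam-grown weeds at the one-leaf stage are sprayed with aqueous suspension or emulsion carrying 0.5% additive, 600 liters per hectare. About 3 weeks later, visual percent activity is scored relative to untreated controls.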

Kochia scoparia (KCHSC) [2] = assay: Herbicidal post-emergence action, section B (Table B4); details: Bassia scoparia, post-emergence, 504 h; application rate 320 g/ha; visual rating about 3 weeks after treatment vs untreated controls; read-out: post-emergence activity against KCHSC in %
Outline: as §1

[3] = tested on: Amaranthus retroflexus (AMARE); assay: Herbicidal pre-emergence action, section A (Table A11)
Outline: (§2)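 Read-out is visual herbicidal effect in percent (100% = plants died, 0% = as control), graded ca. 3 weeks after treatment. Test compounds as WP or EC were applied to covering soil over sown seeds with 0.5% additive, 600 l water per hectare; greenhouse growth.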

[4] = tested on: Matricaria inodora (MATIN); assay: Herbicidal pre-emergence action, section A (Table A6); details: application rate 1280 g/ha, visual grading after ca. 3 weeks vs untreated controls
Outline: as §2

Poa annua (POAAN) [5] = assay: Herbicidal post-emergence action, section B (Table B7); details: Poa annua, post-emergence, 504 h; application rate 320 g/ha; visual rating about 3 weeks after treatment vs untreated controls; read-out: post-emergence activity against POAAN in %
Outline: as §1

Lolium rigidum (LOLRI) [6] = assay: Herbicidal post-emergence action, section B (Table B5); details: application rate 1280 g/ha, visual rating about 3 weeks after treatment vs untreated controls
Protocol: (§3) Seeds of mono- and dicotyledonous weed plants were placed in plastic pots in sandy loam soil (doubly sown with in each case one species of mono- or dicotyledonous weed plants per pot), covered with soil and cultivated in a greenhouse under controlled growth conditions. 2 to 3 weeks after sowing, the test plants were treated at the one-leaf stage. The compounds of the invention, formulated in the form of wettable powders (WP) or as emulsion concentrates (EC), were applied onto the green parts of the plants as aqueous suspension or emulsion with addition of 0.5% additive at a water application rate of 600 liters per hectare (converted). After the test plants had been kept in the greenhouse under optimum growth conditions for about 3 weeks, the activity of the preparations was rated visually in comparison to untreated controls. For example, 100% activity=the plants have died, 0% activity=like control plants.

Setaria viridis (SETVI) [7] = assay: Herbicidal post-emergence action, section B (Table B8); details: Setaria viridis, post-emergence, 504 h; application rate 1280 g/ha; visual rating about 3 weeks after treatment vs untreated controls; read-out: post-emergence activity against SETVI in %
Protocol: as §3

[8] = tested on: Amaranthus retroflexus (AMARE); assay: Herbicidal post-emergence action, section B (Table B11); details: visual rating about 3 weeks after treatment vs untreated controls
Outline: as §1

Lolium rigidum (LOLRI) [9] = assay: Herbicidal pre-emergence action, section A (Table A5); details: visual grading after ca. 3 weeks vs untreated controls
Outline: as §2

[10] = tested on: Abutilon theophrasti (ABUTH); assay: Herbicidal post-emergence action, section B (Table B1); details: Abutilon theophrasti, 504 h, application rate 1280 g/ha, rated visually after about 3 weeks, read-out: post-emergence activity against ABUTH in %
Protocol: as §3

[11] = tested on: Echinochloa crus-galli (ECHCG); assay: Herbicidal pre-emergence action, section A (Table A3); details: application rate 320 g/ha, visual grading after ca. 3 weeks vs untreated controls
Outline: as §2

Setaria viridis (SETVI) [12] = assay: Herbicidal pre-emergence action, section A (Table A8)
Outline: as §2

Kochia scoparia (KCHSC) [13] = assay: Herbicidal pre-emergence action, section A (Table A4); details: visual grading after ca. 3 weeks vs untreated controls
Outline: as §2

[14] = tested on: Digitaria sanguinalis (DIGSA); assay: Herbicidal pre-emergence action, section A (Table A12); details: application rate 320 g/ha
Outline: as §2

[15] = tested on: Echinochloa crus-galli (ECHCG); assay: Herbicidal post-emergence action, section B (Table B3); details: application rate 1280 g/ha, rated visually after about 3 weeks
Protocol: as §3

Veronica persica (VERPE) [16] = assay: Herbicidal post-emergence action, section B (Table B10); details: Veronica persica, post-emergence, 504 h; application rate 320 g/ha; visual rating about 3 weeks after treatment vs untreated controls; read-out: post-emergence activity against VERPE in %
Outline: as §1

[17] = tested on: Digitaria sanguinalis (DIGSA); assay: Herbicidal post-emergence action, section B (Table B12); details: Digitaria sanguinalis, post-emergence, 504 h; application rate 1280 g/ha; visual rating about 3 weeks after treatment vs untreated controls; read-out: post-emergence activity against DIGSA in %
Protocol: as §3

Poa annua (POAAN) [18] = assay: Herbicidal pre-emergence action, section A (Table A7); details: visual grading after ca. 3 weeks vs untreated controls
Outline: as §2

Stellaria media (STEME) [19] = assay: Herbicidal pre-emergence action, section A (Table A9); details: application rate 320 g/ha
Outline: as §2

[20] = tested on: Alopecurus myosuroides (ALOMY); assay: Herbicidal pre-emergence action, section A (Table A2); details: application rate 1280 g/ha; visual grading after ca. 3 weeks vs untreated controls
Excerpt: Seeds of mono- and dicotyledonous weed plants were sown in plastic pots (double sowings with one species of mono- and one species of dicotyledonous weed plants per pot), in sandy loam, and covered with soil. The compounds according to the invention, formulated in the form of wettable powders (WP) or as emulsifiable concentrates (EC), were applied to the surface of the covering soil as aqueous suspension or emulsion, with the addition of 0.5% of an additive, at an application rate of 600 l of water per hectare (converted). Following treatment, the pots were placed in a greenhouse and kept under optimum growth conditions for the test plants. The visual grading of the damage to the test plants was carried out after ca. 3 weeks in comparison to untreated controls (herbicidal effect in percent (%): 100% effect=plants have died off, 0% effect=as control plants).

Veronica persica (VERPE) [21] = assay: Herbicidal pre-emergence action, section A (Table A10); details: application rate 1280 g/ha
Outline: as §2

`NB1OB(N2CSc3cc(Br)c(-c4ccccc4Cl)nc32)O1` [Example I-048, 4-[6-bromo-5-(2-chlorophenyl)-2,3-dihydro[1,3]thiazolo[4,5-b]pyridin-3(2H)-yl]-1,3,2,4-dioxa-diboretan-2-amine] was tested, and the pest or weed control at 320 g/ha (Stellaria media (STEME) [1]; Stellaria media, post-emergence, 504 h, read-out: post-emergence activity against STEME in %) was 90%, the pest or weed control at 320 g/ha (Kochia scoparia (KCHSC) [2]) was 90% and the pest or weed control at 1280 g/ha ([3]; Amaranthus retroflexus, 504 h, application rate 1280 g/ha, read-out: pre-emergence activity against AMARE in %) was 90%. For the same compound, the pest or weed control at 1280 g/ha ([4]; Tripleurospermum inodorum, pre-emergence, 504 h, read-out: pre-emergence activity against MATIN in %) was 90%, the pest or weed control at 320 g/ha (Poa annua (POAAN) [5]) was 90% and the pest or weed control at 1280 g/ha (Lolium rigidum (LOLRI) [6]; Lolium rigidum, post-emergence, 504 h, read-out: post-emergence activity against LOLRI in %) was 90%. The pest or weed control at 1280 g/ha (Setaria viridis (SETVI) [7]) was 90%, the pest or weed control at 320 g/ha ([8]; Amaranthus retroflexus, post-emergence, 504 h, application rate 320 g/ha, read-out: post-emergence activity against AMARE in %) was 90% and the pest or weed control at 1280 g/ha (Lolium rigidum (LOLRI) [9]; Lolium rigidum, pre-emergence, 504 h, application rate 1280 g/ha, read-out: pre-emergence activity against LOLRI in %) was 100%. For the same compound, the pest or weed control at 1280 g/ha [10] was 90%, the pest or weed control at 320 g/ha ([11]; Echinochloa crus-galli, pre-emergence, 504 h, read-out: pre-emergence activity against ECHCG in %) was 100% and the pest or weed control at 1280 g/ha (Setaria viridis (SETVI) [12]; Setaria viridis, 504 h, application rate 1280 g/ha, read-out: pre-emergence activity against SETVI in %) was 100%. For the same compound, the pest or weed control at 1280 g/ha (Kochia scoparia (KCHSC) [13]; Bassia scoparia, pre-emergence, 504 h, application rate 1280 g/ha, read-out: pre-emergence activity against KCHSC in %) was 90%, the pest or weed control at 320 g/ha ([14]; Digitaria sanguinalis, 504 h, read-out: pre-emergence activity against DIGSA in %) was 100% and the pest or weed control at 1280 g/ha ([15]; Echinochloa crus-galli, 504 h, read-out: post-emergence activity against ECHCG in %) was 90%. The pest or weed control at 320 g/ha (Veronica persica (VERPE) [16]) was 90%, the pest or weed control at 1280 g/ha [17] was 90% and the pest or weed control at 1280 g/ha (Poa annua (POAAN) [18]; Poa annua, pre-emergence, 504 h, application rate 1280 g/ha, read-out: pre-emergence activity against POAAN in %) was 100%.
With `Cc1cc2c(nc1-c1cccc(F)c1F)N(C(=O)C13CCCC1C(Cl)=NO3)CS2` (stereo not drawn) [Example I-156] the “post-emergence activity against STEME in %” value (Stellaria media (STEME) [1]) was 90%, the “pre-emergence activity against STEME in %” value (Stellaria media (STEME) [19]) was 90% and the “pre-emergence activity against AMARE in %” value ([3]; application rate 320 g/ha) was 90%. The “pre-emergence activity against MATIN in %” value [4] was 90%, the “post-emergence activity against LOLRI in %” value (Lolium rigidum (LOLRI) [6]) was 90% and the “post-emergence activity against AMARE in %” value ([8]; application rate 1280 g/ha) was 90%. The “pre-emergence activity against LOLRI in %” value (Lolium rigidum (LOLRI) [9]; application rate 320 g/ha) was 90%, the “pre-emergence activity against ECHCG in %” value [11] was 90% and the “pre-emergence activity against SETVI in %” value (Setaria viridis (SETVI) [12]; application rate 320 g/ha) was 100%. For the same compound, the “pre-emergence activity against KCHSC in %” value (Kochia scoparia (KCHSC) [13]; application rate 320 g/ha) was 90%, the “pre-emergence activity against DIGSA in %” value [14] was 90% and the “post-emergence activity against ECHCG in %” value [15] was 90%. For the same compound, the “pre-emergence activity against ALOMY in %” value [20] was 90%, the “pre-emergence activity against VERPE in %” value (Veronica persica (VERPE) [21]) was 90% and the “pre-emergence activity against POAAN in %” value (Poa annua (POAAN) [18]; application rate 320 g/ha) was 100%.
